# PubChem BioAssay (NCI)
#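 Values below derive from 48-hour exposures of cells grown in 96-well plates, with endpoints linearly interpolated between the two concentrations bracketing the appropriate inhibition level. TGI: total growth inhibition.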
# Tests used:
# Experiment in all cases: growth of human tumour cells (NCI), 48 h
# T-47D breast = tested on: T-47D breast
# NCI-H522 lung = tested on: NCI-H522 lung
# SK-OV-3 ovarian = tested on: SK-OV-3 ovarian
# M14 melanoma = tested on: M14 melanoma
# IGROV1 ovarian = tested on: IGROV1 ovarian
# TK-10 renal = tested on: TK-10 renal
# COLO 205 colon = tested on: COLO 205 colon
# ACHN renal = tested on: ACHN renal
# HT29 colon = tested on: HT29 colon
# SK-MEL-5 melanoma = tested on: SK-MEL-5 melanoma
# A549 NSCLC = tested on: A549 NSCLC
# BT-549 breast = tested on: BT-549 breast
# K-562 leukemia = tested on: K-562 leukemia
# OVCAR-5 ovarian = tested on: OVCAR-5 ovarian
# HS 578T breast = tested on: HS 578T breast
# OVCAR-8 ovarian = tested on: OVCAR-8 ovarian
# SF-268 CNS = tested on: SF-268 CNS
# HCT-15 colon = tested on: HCT-15 colon
# KM12 colon = tested on: KM12 colon
# OVCAR-3 ovarian = tested on: OVCAR-3 ovarian
# RPMI-8226 leukemia = tested on: RPMI-8226 leukemia
# PC-3 prostate = tested on: PC-3 prostate
# HOP-62 NSCLC = tested on: HOP-62 NSCLC
# NCI-H226 lung = tested on: NCI-H226 lung
# SNB-75 CNS = tested on: SNB-75 CNS
# MCF7 breast = tested on: MCF7 breast
# UACC-257 melanoma = tested on: UACC-257 melanoma
# MDA-MB-435 = tested on: MDA-MB-435
# HCT-116 colon = tested on: HCT-116 colon
# SR leukemia = tested on: SR leukemia
# EKVX NSCLC = tested on: EKVX NSCLC
# MOLT-4 leukemia = tested on: MOLT-4 leukemia
# CCRF-CEM leukemia = tested on: CCRF-CEM leukemia
# NCI/ADR-RES ovarian = tested on: NCI/ADR-RES ovarian
# MDA-MB-231 breast = tested on: MDA-MB-231 breast
# SNB-19 CNS = tested on: SNB-19 CNS
# CAKI-1 renal = tested on: CAKI-1 renal
# SF-295 CNS = tested on: SF-295 CNS
# HCC-2998 colon = tested on: HCC-2998 colon
# OVCAR-4 ovarian = tested on: OVCAR-4 ovarian
# NCI-H460 lung = tested on: NCI-H460 lung
# U251 CNS = tested on: U251 CNS
# UACC-62 melanoma = tested on: UACC-62 melanoma
# SN12C renal = tested on: SN12C renal
# A498 renal = tested on: A498 renal
# NCI-H23 lung = tested on: NCI-H23 lung
# SK-MEL-2 melanoma = tested on: SK-MEL-2 melanoma
# MALME-3M melanoma = tested on: MALME-3M melanoma
# 786-0 renal = tested on: 786-0 renal
# RXF 393 renal = tested on: RXF 393 renal
# DU-145 prostate = tested on: DU-145 prostate
# UO-31 renal = tested on: UO-31 renal
# LOX IMVI melanoma = tested on: LOX IMVI melanoma
# HOP-92 NSCLC = tested on: HOP-92 NSCLC
# SF-539 CNS = tested on: SF-539 CNS
# SK-MEL-28 melanoma = tested on: SK-MEL-28 melanoma
# SW-620 colon = tested on: SW-620 colon
smiles,measurement,setting,value
Cc1cc(N(CCC#N)CCC#N)ccc1/C(N=Nc1ccc(C(=O)O)cc1)=N\NC(=O)c1cc(Cl)ccc1O,TGI,T-47D breast,> 100 µM
same,TGI,NCI-H522 lung,35.9 µM
same,TGI,SK-OV-3 ovarian,64.5 µM
same,TGI,M14 melanoma,> 100 µM
same,TGI,IGROV1 ovarian,59 µM
same,TGI,TK-10 renal,> 100 µM
same,TGI,COLO 205 colon,> 100 µM
same,TGI,ACHN renal,> 100 µM
same,TGI,HT29 colon,> 100 µM
same,TGI,SK-MEL-5 melanoma,> 100 µM
same,TGI,A549 NSCLC,> 100 µM
same,TGI,BT-549 breast,> 100 µM
same,TGI,K-562 leukemia,> 100 µM
same,TGI,OVCAR-5 ovarian,> 100 µM
same,TGI,HS 578T breast,47.1 µM
same,TGI,OVCAR-8 ovarian,93.1 µM
same,TGI,SF-268 CNS,42.3 µM
same,TGI,HCT-15 colon,> 100 µM
same,TGI,KM12 colon,> 100 µM
same,TGI,OVCAR-3 ovarian,> 100 µM
same,TGI,RPMI-8226 leukemia,> 100 µM
same,TGI,PC-3 prostate,> 100 µM
same,TGI,HOP-62 NSCLC,65.4 µM
same,TGI,NCI-H226 lung,49.9 µM
same,TGI,SNB-75 CNS,53.5 µM
same,TGI,MCF7 breast,> 100 µM
same,TGI,UACC-257 melanoma,> 100 µM
same,TGI,MDA-MB-435,> 100 µM
same,TGI,HCT-116 colon,> 100 µM
same,TGI,SR leukemia,> 100 µM
same,TGI,EKVX NSCLC,> 100 µM
same,TGI,MOLT-4 leukemia,> 100 µM
same,TGI,CCRF-CEM leukemia,> 100 µM
same,TGI,NCI/ADR-RES ovarian,> 100 µM
same,TGI,MDA-MB-231 breast,63.1 µM
same,TGI,SNB-19 CNS,55.9 µM
same,TGI,CAKI-1 renal,> 100 µM
same,TGI,SF-295 CNS,34.7 µM
same,TGI,HCC-2998 colon,> 100 µM
same,TGI,OVCAR-4 ovarian,97 µM
same,TGI,NCI-H460 lung,> 100 µM
same,TGI,U251 CNS,63.1 µM
same,TGI,UACC-62 melanoma,> 100 µM
same,TGI,SN12C renal,> 100 µM
same,TGI,A498 renal,87.7 µM
same,TGI,NCI-H23 lung,> 100 µM
same,TGI,SK-MEL-2 melanoma,> 100 µM
same,TGI,MALME-3M melanoma,> 100 µM
same,TGI,786-0 renal,39.8 µM
same,TGI,RXF 393 renal,78.9 µM
same,TGI,DU-145 prostate,> 100 µM
same,TGI,UO-31 renal,68 µM
COc1cc2c(cc1OCCCCN1C(=O)c3cccc4cccc(c34)C1=O)N=C[C@@H]1CCCN1C2=O,TGI,T-47D breast,37.1 µM
same,TGI,NCI-H522 lung,4.59 µM
same,TGI,SK-OV-3 ovarian,> 74 µM
same,TGI,LOX IMVI melanoma,> 100 µM
same,TGI,M14 melanoma,> 34.3 µM
same,TGI,IGROV1 ovarian,6.01 µM
same,TGI,TK-10 renal,6.91 µM
same,TGI,COLO 205 colon,8.21 µM
same,TGI,ACHN renal,5.2 µM
same,TGI,HT29 colon,18.8 µM
same,TGI,SK-MEL-5 melanoma,4.42 µM
same,TGI,A549 NSCLC,> 53.4 µM
same,TGI,BT-549 breast,28.7 µM
same,TGI,K-562 leukemia,> 100 µM
same,TGI,OVCAR-5 ovarian,> 100 µM
same,TGI,OVCAR-8 ovarian,82.8 µM
same,TGI,SF-268 CNS,> 100 µM
same,TGI,HCT-15 colon,14.8 µM
same,TGI,KM12 colon,13.2 µM
same,TGI,HOP-92 NSCLC,> 45.8 µM
same,TGI,OVCAR-3 ovarian,10.4 µM
same,TGI,RPMI-8226 leukemia,27.4 µM
same,TGI,PC-3 prostate,> 70.3 µM
same,TGI,HOP-62 NSCLC,33.6 µM
same,TGI,NCI-H226 lung,23.5 µM
same,TGI,MCF7 breast,22.4 µM
same,TGI,UACC-257 melanoma,37.7 µM
same,TGI,MDA-MB-435,> 35.6 µM
same,TGI,HCT-116 colon,14 µM
same,TGI,SR leukemia,> 100 µM
same,TGI,EKVX NSCLC,44.6 µM
same,TGI,MOLT-4 leukemia,> 100 µM
same,TGI,CCRF-CEM leukemia,5.08 µM
same,TGI,NCI/ADR-RES ovarian,28.4 µM
same,TGI,MDA-MB-231 breast,29.4 µM
same,TGI,SNB-19 CNS,> 52.3 µM
same,TGI,CAKI-1 renal,10.1 µM
same,TGI,SF-295 CNS,45.8 µM
same,TGI,HCC-2998 colon,20.5 µM
same,TGI,OVCAR-4 ovarian,18.3 µM
same,TGI,SF-539 CNS,7.1 µM
same,TGI,NCI-H460 lung,14.4 µM
same,TGI,U251 CNS,> 33.9 µM
same,TGI,UACC-62 melanoma,39.9 µM
same,TGI,SN12C renal,17.7 µM
same,TGI,A498 renal,13.9 µM
same,TGI,NCI-H23 lung,11.5 µM
same,TGI,SK-MEL-2 melanoma,17.9 µM
same,TGI,MALME-3M melanoma,16.1 µM
same,TGI,786-0 renal,9.73 µM
same,TGI,RXF 393 renal,3.63 µM
same,TGI,DU-145 prostate,14.3 µM
same,TGI,SK-MEL-28 melanoma,38.2 µM
same,TGI,SW-620 colon,> 38.8 µM
same,TGI,UO-31 renal,3.4 µM
